The term ED50 denotes the midpoint of the dose-response relation.

The first assay has as its system Lewis strain laboratory rats. As to the kind of experiment: In vivo alleviation of inflammation: polyarthritis (adjuvant, Mycobacterium butyricum) in rats, inhibition of paw volume increase. Conditions: Rattus norvegicus, po, rat; read-out: ED50 (effective dose to obtain a 50% inhibition of inflammation). The method, then: Polyarthritis was induced in Lewis strain laboratory rats (weight=about 200 grams) by injection of a suspension of Mycobacterium butyricum in mineral oil into the subplantar tissue of the mammal's hind paws. On day 10 after the injection, the rats were assigned to groups, and paw volumes and body weights were recorded. Paw volumes of the contralateral, uninjected hind paw were determined by mercury plethylsmography. Per oral (p.o.) dosing began and continued for five consecutive days thereafter. On day 14 after the initial injection, approximately four hours after the final dose was administered, paw volumes and body weights were recorded and quantitated.
Anti-inflammatory activity of the substituted pyrazole compounds is expressed as the percent inhibition of paw volume increase.
Regarding `COc1ccc(-n2nc(CCCO)cc2-c2ccc(C)cc2)cc1` [Compound 55, 3-(3-hydroxypropyl)-1-(4-methoxyphenyl)-5-(4-tolyl)pyrazole], the ED50 was determined as 3.9 mg/kg.
On to `COc1ccc(-n2nc(CCC(=O)N(C)OC(=O)CN(C)C)cc2-c2ccc(Cl)cc2)cc1` [Compound 134, 3-[5-(4-Chlorophenyl)-1-(4-methoxyphenyl)-3-pyrazolyl]-N',N'-dimethylglycinyloxy-N-methylpropanamide], for which the ED50 is 12.5 mg/kg.

Staying with this assay, now noted: p.o., rat.
Consider `COc1ccc(-n2nc(CCC(=O)O)cc2-c2ccc(Cl)cc2)cc1` [Compound 12, 3-[5-(4-Chlorophenyl)-1-(4-methoxyphenyl)-3-pyrazolyl] propionic acid], for which the “ED50 (effective dose to obtain a 50% inhibition of inflammation)” value was 5.2 mpk.

Staying with this assay, now noted: po, 336 h; 10 mpk p.o., rat; read-out: % INH. p.o. (percentage inhibition of pad swelling).
For the molecule `CCCCCCCC(=O)N(O)CCCc1cc(-c2ccc(Cl)cc2)n(-c2ccc(OC)cc2)n1` [Compound 154], the inhibition in vivo at 10 mg/kg stood at 11%.
Turning to `COc1ccc(-n2nc(CCC(=O)N(C)OC(=O)CCCC(=O)O)cc2-c2ccc(Cl)cc2)cc1` [Compound 132], the inhibition in vivo at 10 mg/kg is 30%.
In the case of `COc1ccc(-n2nc(CCC(=O)O)cc2-c2cccc(C)c2)cc1` [Compound 106], the inhibition in vivo at 10 mg/kg came to 11%.
Consider `COc1ccc(-n2nc(CCC(=O)N(C)OC(=O)C(C)(C)C)cc2-c2ccc(Cl)cc2)cc1` [Compound 141], for which the inhibition in vivo at 10 mg/kg came out at 17%.
For `CCCCCCCCN(O)C(=O)CCc1cc(-c2ccc(Cl)cc2)n(-c2ccc(OC)cc2)n1` [Compound 146], the inhibition in vivo at 10 mg/kg was determined as 29%.
Same read-out and setting: with `COc1ccc(-n2nc(CCCN(O)C(=O)C(C)(C)C)cc2-c2ccc(Cl)cc2)cc1` [Compound 153] the figure was 49%.
Same read-out and setting: with `COc1ccc(-n2nc(CCC(=O)N(C)O)cc2-c2ccccc2C)cc1` [Compound 118] the figure was 6%.

Staying with this assay, now noted: po, 336 h; 15 mpk p.o., rat; read-out: % INH. p.o. (percentage inhibition of pad swelling).
As for `COc1ccc(-n2nc(CCC=NNc3nccs3)cc2-c2ccc(Cl)cc2)cc1` [Compound 174], the inhibition in vivo at 15 mg/kg amounted to 37%.
Same read-out and setting: with `COc1ccc(-n2nc(CCC(=O)O)c(Cl)c2-c2ccc(Cl)cc2)cc1` [Compound 182] the figure was 71%; with `COc1ccc(-n2nc(CCC(=O)N(O)C3CCCCC3)cc2-c2ccc(Cl)cc2)cc1` [Compound 82, 3-[5-(4-chlorophenyl)-1-(4-methoxyphenyl)-3-pyrazolyl]-N-cyclohexyl-N-hydroxypropanamide], 54%; with `CCOc1ccc(-n2nc(CCC(=O)O)cc2-c2ccc(Cl)cc2)cc1` [Compound 72], 71%.
In the case of `COc1ccc(-n2nc(CCC(=O)NCCO)cc2-c2ccc(Cl)cc2)cc1` [Compound 65], the inhibition in vivo at 15 mg/kg was 21%.
Regarding `COc1ccc(-n2nc(CCC(=O)N(C)O)c(Cl)c2-c2ccc(Cl)cc2)cc1` [Compound 149], the inhibition in vivo at 15 mg/kg stood at 68%.
On the same count and under the same terms, with `CCN(O)C(=O)CCc1cc(-c2ccc(Cl)cc2)n(-c2ccc(OC)cc2)n1` [Compound 83, 3-[5-(4-chlorophenyl)-1-(4-methoxyphenyl)-3-pyrazolyl]-N-ethyl-N-hydroxypropanamide] the figure was 42%.
On to `COc1ccc(-n2nc(CCCNC(=O)C(=O)NO)cc2-c2ccc(Cl)cc2)cc1` [Compound 164], for which the inhibition in vivo at 15 mg/kg was 13%.
For `COc1ccc(-n2nc(CCC(C)=NNc3nccs3)cc2-c2ccc(Cl)cc2)cc1` [Compound 173, 5-(4-Chlorophenyl)-1-(4-methoxyphenyl)-3-(3-oxobutyl)pyrazole thiazol-2-yl hydrazone], the inhibition in vivo at 15 mg/kg is 39%.
As for `COc1ccc(-n2nc(CCC(=O)O)c(Br)c2-c2ccc(Cl)cc2)cc1` [Compound 147, 3-[4-Bromo-5-(4-Chlorophenyl)-1-(4-methoxyphenyl)-3-pyrazolyl]-propionic acid], the inhibition in vivo at 15 mg/kg worked out at 79%.
The same measure, in the same setting: with `COc1ccc(-n2nc(CCC(=O)N(C)O)cc2-c2ccc(C)cc2)cc1` [Compound 111] the figure was 75%; with `COc1ccc(-n2nc(CCC(=O)NO)c(Br)c2-c2ccc(Cl)cc2)cc1` [Compound 150], 70%; with `COc1ccc(-n2nc(CCC(=O)N(C)OC(C)=O)cc2-c2ccc(Cl)cc2)cc1` [Compound 140], 77%.
As for `CCC(O)CCc1cc(-c2ccc(Cl)cc2)n(-c2ccc(OC)cc2)n1` (stereo not drawn) [Compound 177], the inhibition in vivo at 15 mg/kg was 16%.
Still for that read-out and setting: with `COc1ccc(-n2nc(CCNC(=O)C(=O)N(C)O)cc2-c2ccc(Cl)cc2)cc1` [Compound 163] the figure was 28%; with `CCC(=O)CCc1cc(-c2ccc(Cl)cc2)n(-c2ccc(OC)cc2)n1` [Compound 180], 32%.

The assay is the same for the next values; noted with them: po, 336 h; 20 mpk p.o., rat; read-out: % INH. p.o. (percentage inhibition of pad swelling).
On to `COc1ccc(-n2nc(CCCOC(=O)CC(C)=O)cc2-c2ccc(Cl)cc2)cc1` [Compound 59, 3-(3-Acetoacetoxypropyl)-5-(4-chlorophenyl)-1-(4-methoxyphenyl) pyrazole], for which the inhibition in vivo at 20 mg/kg came to 48%.

Staying with this assay, now noted: po, 336 h; 25 mpk p.o., rat; read-out: % INH. p.o. (percentage inhibition of pad swelling).
In the case of `COc1ccc(-n2nc(CCC(=O)N(C)OC)cc2-c2ccc(Cl)cc2)cc1` [Compound 44], the inhibition in vivo at 25 mg/kg amounted to 69%.
With `COc1ccc(-n2nc(CCC(=O)ONC(C)(C)C)cc2-c2ccc(Cl)cc2)cc1` [Compound 57, 0-[2-[5-(4-Chlorophenyl)-1-(4-methoxyphenyl)-3-pyrazolyl]ethylcarbonyl]-N-tert-butylhydroxylamine], the inhibition in vivo at 25 mg/kg is 87%.
Regarding `COc1ccc(-n2nc(CCCO)cc2-c2ccc(-c3ccccc3)cc2)cc1` [Compound 54], the inhibition in vivo at 25 mg/kg was determined as 36%.
On to `CCN(CC)C(=O)CCc1cc(-c2ccc(Cl)cc2)n(-c2ccc(OC)cc2)n1` [Compound 28, 3-[5-(4-Chlorophenyl)-1-(4-methoxyphenyl)-3-pyrazolyl]-N,N-diethylpropanamide], for which the inhibition in vivo at 25 mg/kg was 44%.
Still for that read-out and setting: with `Cc1ccc(-n2nc(CCCO)cc2-c2ccc(Cl)cc2)cc1` [Compound 37] the figure was 41%.
For the molecule `O=C(O)CCc1cc(-c2ccc(Cl)cc2)n(-c2ccccc2)n1` [Compound 17, 3-[5-(4-Chlorophenyl)-1-phenyl-3-pyrazolyl]propionic acid], the inhibition in vivo at 25 mg/kg turned out to be 50%.

The assay is the same for the next values; noted with them: po, 336 h; 40 mpk p.o., rat; read-out: % INH. p.o. (percentage inhibition of pad swelling).
Consider `CNOC(=O)CCc1cc(-c2ccc(Cl)cc2)n(-c2ccc(OC)cc2)n1` [Compound 53, 0-[2-[5-(4-Chlorophenyl)-1-(4-methoxyphenyl)-3-pyrazolyl]ethyl-carbonyl]-N-methylhydroxylamine], for which the inhibition in vivo at 40 mg/kg was 94%.
Still for that read-out and setting: with `COc1ccc(-n2nc(CCC(C)=O)cc2-c2ccc(Cl)cc2)cc1` [Compound 23, 5-(4-Chlorophenyl)-1-(4-methoxyphenyl)-3-(3-oxobutyl)pyrazole] the figure was 53%.
In the case of `COc1ccc(-n2nc(CCC(=O)N(C)O)c(Br)c2-c2ccc(Cl)cc2)cc1` [Compound 148], the inhibition in vivo at 40 mg/kg worked out at 15%.

The assay is the same for the next values; noted with them: po, 336 h; 50 mpk p.o., rat; read-out: % INH. p.o. (percentage inhibition of pad swelling).
For `OCCCc1cc(-c2ccc(Cl)cc2)n(-c2ccc(F)cc2)n1` [Compound 62], the inhibition in vivo at 50 mg/kg is 31%.
In the case of `CS(=O)(=O)c1ccc(-n2nc(CCCO)cc2-c2ccc(Cl)cc2)cc1` [Compound 36], the inhibition in vivo at 50 mg/kg came out at 40%.
Regarding `CC(=O)OCCCc1cc(-c2ccc(Cl)cc2)n(-c2ccccc2)n1` [Compound 7, 3-(3-Acetoxypropyl)-5-(4-chlorophenyl)-1-phenylpyrazole], the inhibition in vivo at 50 mg/kg turned out to be 54%.
